Experimental findings from US20260158017A1, “KIF18A INHIBITOR” (WIGEN BIOMEDICINE TECHNOLOGY (SHANGHAI) CO., LTD., priority 2021, published 2026) are described below.

Usually IC50 stands for the concentration that gives 50% inhibition.

T1 sequence (Q8NI77 1-467): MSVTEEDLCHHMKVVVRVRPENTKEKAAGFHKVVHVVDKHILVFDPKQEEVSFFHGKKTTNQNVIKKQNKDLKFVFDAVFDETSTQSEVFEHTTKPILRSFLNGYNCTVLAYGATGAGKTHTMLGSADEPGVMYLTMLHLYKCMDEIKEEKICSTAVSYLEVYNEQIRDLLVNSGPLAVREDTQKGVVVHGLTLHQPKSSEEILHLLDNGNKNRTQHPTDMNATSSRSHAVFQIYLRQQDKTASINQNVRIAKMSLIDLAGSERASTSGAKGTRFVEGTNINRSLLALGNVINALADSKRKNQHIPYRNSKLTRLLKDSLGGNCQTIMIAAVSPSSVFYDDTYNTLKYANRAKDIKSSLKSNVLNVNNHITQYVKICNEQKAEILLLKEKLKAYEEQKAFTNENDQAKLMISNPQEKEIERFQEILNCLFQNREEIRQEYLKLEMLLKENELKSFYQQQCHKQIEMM
T1 sequence (P02550 whole entry partner): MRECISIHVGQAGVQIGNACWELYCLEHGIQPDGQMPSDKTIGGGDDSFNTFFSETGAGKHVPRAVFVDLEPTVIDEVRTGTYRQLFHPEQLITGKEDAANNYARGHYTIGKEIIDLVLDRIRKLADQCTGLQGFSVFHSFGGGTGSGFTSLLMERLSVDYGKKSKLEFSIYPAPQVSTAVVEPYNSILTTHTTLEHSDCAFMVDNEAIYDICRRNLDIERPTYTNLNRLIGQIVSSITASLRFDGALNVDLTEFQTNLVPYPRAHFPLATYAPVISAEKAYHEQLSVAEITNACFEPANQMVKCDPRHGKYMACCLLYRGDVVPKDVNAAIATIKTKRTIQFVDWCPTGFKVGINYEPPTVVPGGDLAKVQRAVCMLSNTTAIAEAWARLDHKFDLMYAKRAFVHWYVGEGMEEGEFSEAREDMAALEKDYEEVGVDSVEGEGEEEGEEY
T1 sequence (P02554 whole entry partner): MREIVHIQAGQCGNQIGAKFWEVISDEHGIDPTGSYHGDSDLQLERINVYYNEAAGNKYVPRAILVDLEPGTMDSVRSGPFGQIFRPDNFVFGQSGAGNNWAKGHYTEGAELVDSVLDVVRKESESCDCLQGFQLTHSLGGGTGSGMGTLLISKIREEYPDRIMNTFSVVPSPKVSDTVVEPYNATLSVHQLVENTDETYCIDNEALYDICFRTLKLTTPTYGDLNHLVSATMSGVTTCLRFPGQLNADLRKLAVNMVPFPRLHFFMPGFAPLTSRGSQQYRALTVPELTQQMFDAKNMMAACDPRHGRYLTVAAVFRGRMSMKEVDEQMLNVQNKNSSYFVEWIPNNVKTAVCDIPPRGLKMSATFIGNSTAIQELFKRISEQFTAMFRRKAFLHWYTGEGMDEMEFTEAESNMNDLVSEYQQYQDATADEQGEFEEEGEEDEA

This test concerns the target T1, Recombinant human KIF18A (1-467His-tagged) protein (Homo sapiens, UniProt Q8NI77).
T1 construct: Recombinant human KIF18A (1-467His-tagged) protein; His; made in house
Kind of test: KIF18A enzyme assay (microtubule-stimulated ATPase activity, ADP-Glo). It is filed as biochemical. As to conditions: 30 nM KIF18A, 75 μM ATP, 30 μg/mL pig microtubules; read-out: Inhibitory activity against KIF18A IC50. The method in brief: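 Buffer 15 mM Tris pH 7.5, 10 mM MgCl2, 0.01% Pluronic F-68, 1 μM paclitaxel, 30 μg/mL pig microtubules; reactions at room temperature. IC50 from inhibition relative to DMSO.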
In general terms: ADP-Glo turns the ADP formed in a reaction into a luminescent signal.
In the case of `C[C@H]1CN(c2nc(C(=O)Nc3ccc(NS(=O)(=O)CCO)cc3N3CCC4(CC3)CC4)ccc2[N+](=O)[O-])CCO1` [Compound 163], the half-maximal inhibitory concentration (IC50) is not above 100 nM.
Then `O=C(Nc1ccc(NS(=O)(=O)CCO)cc1N1CCC2(CC1)CC2)c1ccc([N+](=O)[O-])c(N2CC(F)(F)C2)n1` [Compound 164], with not above 100 nM; and `O=C(Nc1ccc(NS(=O)(=O)CCO)cc1N1CCC2(CC1)CC2)c1ccc([N+](=O)[O-])c(OCCC(F)(F)F)n1` [Compound 165], with not above 100 nM; and `O=C(Nc1ccc(NS(=O)(=O)CCO)cc1N1CCC2(CC1)CC2)c1ccc([N+](=O)[O-])c(N2CCC3(CC3)C2)n1` [Compound 166], with not above 100 nM.
Regarding `O=C(Nc1ccc(NS(=O)(=O)CCO)cc1N1CCC2(CC1)CC2)c1ccc([N+](=O)[O-])c(OC2CCC2)n1` [Compound 167], the IC50 is not above 100 nM.
Turning to `CC1(F)CCN(c2nc(C(=O)Nc3ccc(NS(=O)(=O)CCO)cc3N3CCC4(CC3)CC4)ccc2[N+](=O)[O-])C1` (stereo not drawn) [Compound 168], the 50% inhibitory concentration (IC50) was not above 100 nM.
The result for `O=C(Nc1ccc(NS(=O)(=O)CCO)cc1N1CCC2(CC1)CC2)c1ccc([N+](=O)[O-])c(N2CCC(F)CC2)n1` [Compound 169] reads not above 100 nM; that for `O=C(Nc1ccc(NS(=O)(=O)CCO)cc1N1CCC2(CC1)CC2)c1ccc([N+](=O)[O-])c(N2CC3CC3C2)n1` (stereo not drawn) [Compound 170], not above 100 nM.
The result for `CC(C)(CO)Nc1nc(C(=O)Nc2ccc(NS(=O)(=O)CCO)cc2N2CCC3(CC2)CC3)ccc1[N+](=O)[O-]` [Compound 171] reads not above 100 nM; that for `O=C(Nc1ccc(NS(=O)(=O)CCO)cc1N1CCC2(CC1)CC2)c1ccc([N+](=O)[O-])c(N2CCOCC2)n1` [Compound 172], not above 100 nM.
`C[C@@H](CO)S(=O)(=O)Nc1ccc(NC(=O)c2ccc([N+](=O)[O-])c(N3CCC(F)(F)CC3)n2)c(N2CCC3(CC2)CC3)c1` [Compound 173]: the IC50 was not above 100 nM.
The result for `C[C@H](CO)S(=O)(=O)Nc1ccc(NC(=O)c2ccc([N+](=O)[O-])c(N3CCC(F)(F)CC3)n2)c(N2CCC3(CC2)CC3)c1` [Compound 174] reads not above 100 nM; that for `C[C@@H]1CN(c2nc(C(=O)Nc3ccc(NS(=O)(=O)[C@@H](C)CO)cc3N3CCC4(CC3)CC4)ccc2[N+](=O)[O-])CCO1` [Compound 175], not above 100 nM.
Then `C[C@@H]1CN(c2nc(C(=O)Nc3ccc(NS(=O)(=O)[C@H](C)CO)cc3N3CCC4(CC3)CC4)ccc2[N+](=O)[O-])CCO1` [Compound 176], with not above 100 nM.
Then `O=C(Nc1ccc(S(=O)(=O)NCCO)cc1N1CCC2(CC1)CC2)c1ccc([N+](=O)[O-])c(N2CCC(F)(F)CC2)n1` [Compound 177], with 100 to 500 nM.
Take `C[C@@H]1CN(c2nc(C(=O)Nc3ccc(S(=O)(=O)NCCO)cc3N3CCC4(CC3)CC4)ccc2[N+](=O)[O-])CCO1` [Compound 178]: the concentration for half-maximal inhibition (IC50) lay within 100 to 500 nM.
Then `C[C@H]1CN(c2nc(C(=O)Nc3ccc(S(=O)(=O)NCCO)cc3N3CCC4(CC3)CC4)ccc2[N+](=O)[O-])CCO1` [Compound 179], with 100 to 500 nM.
Then `O=C(Nc1ccc(S(=O)(=O)NCCO)cc1N1CCC2(CC1)CC2)c1ccc([N+](=O)[O-])c(N2CC(F)(F)C2)n1` [Compound 180], with 100 to 500 nM; and `O=C(Nc1ccc(S(=O)(=O)NCCO)cc1N1CCC2(CC1)CC2)c1ccc([N+](=O)[O-])c(OCCC(F)(F)F)n1` [Compound 181], with 100 to 500 nM.
The result for `O=C(Nc1ccc(S(=O)(=O)NCCO)cc1N1CCC2(CC1)CC2)c1ccc([N+](=O)[O-])c(N2CCC3(CC3)C2)n1` [Compound 182] reads 100 to 500 nM; that for `O=C(Nc1ccc(S(=O)(=O)NCCO)cc1N1CCC2(CC1)CC2)c1ccc([N+](=O)[O-])c(OC2CCC2)n1` [Compound 183], 100 to 500 nM.
With `CC1(F)CCN(c2nc(C(=O)Nc3ccc(S(=O)(=O)NCCO)cc3N3CCC4(CC3)CC4)ccc2[N+](=O)[O-])C1` (stereo not drawn) [Compound 184], the IC50 lay within 100 to 500 nM.
As to `O=C(Nc1ccc(S(=O)(=O)NCCO)cc1N1CCC2(CC1)CC2)c1ccc([N+](=O)[O-])c(N2CCC(F)CC2)n1` [Compound 185], the IC50 lay within 100 to 500 nM.
The result for `O=C(Nc1ccc(S(=O)(=O)NCCO)cc1N1CCC2(CC1)CC2)c1ccc([N+](=O)[O-])c(N2CC3CC3C2)n1` (stereo not drawn) [Compound 186] reads 100 to 500 nM; that for `CC(C)(CO)Nc1nc(C(=O)Nc2ccc(S(=O)(=O)NCCO)cc2N2CCC3(CC2)CC3)ccc1[N+](=O)[O-]` [Compound 187], 100 to 500 nM.
Then `O=C(Nc1ccc(S(=O)(=O)NCCO)cc1N1CCC2(CC1)CC2)c1ccc([N+](=O)[O-])c(N2CCOCC2)n1` [Compound 188], with 100 to 500 nM; and `C[C@@H](CO)NS(=O)(=O)c1ccc(NC(=O)c2ccc([N+](=O)[O-])c(N3CCC(F)(F)CC3)n2)c(N2CCC3(CC2)CC3)c1` [Compound 189], with 100 to 500 nM.
For `C[C@H](CO)NS(=O)(=O)c1ccc(NC(=O)c2ccc([N+](=O)[O-])c(N3CCC(F)(F)CC3)n2)c(N2CCC3(CC2)CC3)c1` [Compound 190], the 50% inhibitory concentration (IC50) lay in the range of 100 to 500 nM.
Then `C[C@@H]1CN(c2nc(C(=O)Nc3ccc(S(=O)(=O)N[C@@H](C)CO)cc3N3CCC4(CC3)CC4)ccc2[N+](=O)[O-])CCO1` [Compound 191], with 100 to 500 nM; and `C[C@H](CO)NS(=O)(=O)c1ccc(NC(=O)c2ccc([N+](=O)[O-])c(N3CCO[C@H](C)C3)n2)c(N2CCC3(CC2)CC3)c1` [Compound 192], with 100 to 500 nM; and `O=C(Nc1cnc(NS(=O)(=O)CCO)cc1N1CCC2(CC1)CC2)c1ccc([N+](=O)[O-])c(N2CCC(F)(F)CC2)c1` [Compound 193], with not above 100 nM.
Then `C[C@@H]1CN(c2cc(C(=O)Nc3cnc(NS(=O)(=O)CCO)cc3N3CCC4(CC3)CC4)ccc2[N+](=O)[O-])CCO1` [Compound 194], with not above 100 nM; and `C[C@H]1CN(c2cc(C(=O)Nc3cnc(NS(=O)(=O)CCO)cc3N3CCC4(CC3)CC4)ccc2[N+](=O)[O-])CCO1` [Compound 195], with not above 100 nM.
Then `O=C(Nc1cnc(NS(=O)(=O)CCO)cc1N1CCC2(CC1)CC2)c1ccc([N+](=O)[O-])c(N2CC(F)(F)C2)c1` [Compound 196], with not above 100 nM; and `O=C(Nc1cnc(NS(=O)(=O)CCO)cc1N1CCC2(CC1)CC2)c1ccc([N+](=O)[O-])c(OCCC(F)(F)F)c1` [Compound 197], with not above 100 nM; and `O=C(Nc1cnc(NS(=O)(=O)CCO)cc1N1CCC2(CC1)CC2)c1ccc([N+](=O)[O-])c(N2CCC3(CC3)C2)c1` [Compound 198], with not above 100 nM.
As to `O=C(Nc1cnc(NS(=O)(=O)CCO)cc1N1CCC2(CC1)CC2)c1ccc([N+](=O)[O-])c(OC2CCC2)c1` [Compound 199], the IC50 is not above 100 nM.
As to `CC1(F)CCN(c2cc(C(=O)Nc3cnc(NS(=O)(=O)CCO)cc3N3CCC4(CC3)CC4)ccc2[N+](=O)[O-])C1` (stereo not drawn) [Compound 200], the half-inhibitory concentration (IC50) was not above 100 nM.
The result for `O=C(Nc1cnc(NS(=O)(=O)CCO)cc1N1CCC2(CC1)CC2)c1ccc([N+](=O)[O-])c(N2CCC(F)CC2)c1` [Compound 201] reads not above 100 nM; that for `O=C(Nc1cnc(NS(=O)(=O)CCO)cc1N1CCC2(CC1)CC2)c1ccc([N+](=O)[O-])c(N2CC3CC3C2)c1` (stereo not drawn) [Compound 202], not above 100 nM.
Then `CC(C)(CO)Nc1cc(C(=O)Nc2cnc(NS(=O)(=O)CCO)cc2N2CCC3(CC2)CC3)ccc1[N+](=O)[O-]` [Compound 203], with not above 100 nM; and `O=C(Nc1cnc(NS(=O)(=O)CCO)cc1N1CCC2(CC1)CC2)c1ccc([N+](=O)[O-])c(N2CCOCC2)c1` [Compound 204], with not above 100 nM.
In the case of `C[C@@H](CO)S(=O)(=O)Nc1cc(N2CCC3(CC2)CC3)c(NC(=O)c2ccc([N+](=O)[O-])c(N3CCC(F)(F)CC3)c2)cn1` [Compound 205], the IC50 was not above 100 nM.
The result for `C[C@H](CO)S(=O)(=O)Nc1cc(N2CCC3(CC2)CC3)c(NC(=O)c2ccc([N+](=O)[O-])c(N3CCC(F)(F)CC3)c2)cn1` [Compound 206] reads not above 100 nM; that for `C[C@@H]1CN(c2cc(C(=O)Nc3cnc(NS(=O)(=O)[C@@H](C)CO)cc3N3CCC4(CC3)CC4)ccc2[N+](=O)[O-])CCO1` [Compound 207], not above 100 nM.
Then `C[C@@H]1CN(c2cc(C(=O)Nc3cnc(NS(=O)(=O)[C@H](C)CO)cc3N3CCC4(CC3)CC4)ccc2[N+](=O)[O-])CCO1` [Compound 208], with not above 100 nM.
Then `O=C(Nc1cnc(S(=O)(=O)NCCO)cc1N1CCC2(CC1)CC2)c1ccc([N+](=O)[O-])c(N2CCC(F)(F)CC2)c1` [Compound 209], with 100 to 500 nM.
Regarding `C[C@@H]1CN(c2cc(C(=O)Nc3cnc(S(=O)(=O)NCCO)cc3N3CCC4(CC3)CC4)ccc2[N+](=O)[O-])CCO1` [Compound 210], the IC50 is 100 to 500 nM.
Turning to `C[C@H]1CN(c2cc(C(=O)Nc3cnc(S(=O)(=O)NCCO)cc3N3CCC4(CC3)CC4)ccc2[N+](=O)[O-])CCO1` [Compound 211], the half-maximal inhibitory concentration (IC50) was in the range of 100 to 500 nM.
The result for `O=C(Nc1cnc(S(=O)(=O)NCCO)cc1N1CCC2(CC1)CC2)c1ccc([N+](=O)[O-])c(N2CC(F)(F)C2)c1` [Compound 212] reads 100 to 500 nM.
The result for `O=C(Nc1cnc(S(=O)(=O)NCCO)cc1N1CCC2(CC1)CC2)c1ccc([N+](=O)[O-])c(OCCC(F)(F)F)c1` [Compound 213] reads 100 to 500 nM; that for `O=C(Nc1cnc(S(=O)(=O)NCCO)cc1N1CCC2(CC1)CC2)c1ccc([N+](=O)[O-])c(N2CCC3(CC3)C2)c1` [Compound 214], 100 to 500 nM.
Then `O=C(Nc1cnc(S(=O)(=O)NCCO)cc1N1CCC2(CC1)CC2)c1ccc([N+](=O)[O-])c(OC2CCC2)c1` [Compound 215], with 100 to 500 nM.
Consider `CC1(F)CCN(c2cc(C(=O)Nc3cnc(S(=O)(=O)NCCO)cc3N3CCC4(CC3)CC4)ccc2[N+](=O)[O-])C1` (stereo not drawn) [Compound 216], for which the IC50 was 100 to 500 nM.
